Data on 15 compounds can be found in patent US10457677B2 (priority 2015, dated 2019).

Like-named read-outs stand apart in the source and are kept apart here.

Test [1] deals with purified human recombinant ATM (ataxia telangiectasia mutated), full length (Homo sapiens (Human), UniProt Q13315). The test can be described thus: ATM kinase assay - determination of ATM inhibition (IC50 ATM), TR-FRET. Type of test: biochemical. The note with it: 10 μM ATP, substrate p53. The essentials: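 Full-length enzyme, expressed in a mammalian cell line, pre-incubated 15 min with inhibitor in 25 mM HEPES pH 8.0, 10 mM Mg(CH3COO)2, 1 mM MnCl2, 0,1% BSA, 0,01% Brij 35, 5 mM DTT. Full-length cmyc-p53 (Sf21-expressed) and ATP then added, 30-35 min at 22° C. EDTA stop; p53 S15 phosphorylation read by TR-FRET antibodies.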
purified human recombinant ATM (ataxia telangiectasia mutated), full length, sequence (Q13315 whole entry, change not shown): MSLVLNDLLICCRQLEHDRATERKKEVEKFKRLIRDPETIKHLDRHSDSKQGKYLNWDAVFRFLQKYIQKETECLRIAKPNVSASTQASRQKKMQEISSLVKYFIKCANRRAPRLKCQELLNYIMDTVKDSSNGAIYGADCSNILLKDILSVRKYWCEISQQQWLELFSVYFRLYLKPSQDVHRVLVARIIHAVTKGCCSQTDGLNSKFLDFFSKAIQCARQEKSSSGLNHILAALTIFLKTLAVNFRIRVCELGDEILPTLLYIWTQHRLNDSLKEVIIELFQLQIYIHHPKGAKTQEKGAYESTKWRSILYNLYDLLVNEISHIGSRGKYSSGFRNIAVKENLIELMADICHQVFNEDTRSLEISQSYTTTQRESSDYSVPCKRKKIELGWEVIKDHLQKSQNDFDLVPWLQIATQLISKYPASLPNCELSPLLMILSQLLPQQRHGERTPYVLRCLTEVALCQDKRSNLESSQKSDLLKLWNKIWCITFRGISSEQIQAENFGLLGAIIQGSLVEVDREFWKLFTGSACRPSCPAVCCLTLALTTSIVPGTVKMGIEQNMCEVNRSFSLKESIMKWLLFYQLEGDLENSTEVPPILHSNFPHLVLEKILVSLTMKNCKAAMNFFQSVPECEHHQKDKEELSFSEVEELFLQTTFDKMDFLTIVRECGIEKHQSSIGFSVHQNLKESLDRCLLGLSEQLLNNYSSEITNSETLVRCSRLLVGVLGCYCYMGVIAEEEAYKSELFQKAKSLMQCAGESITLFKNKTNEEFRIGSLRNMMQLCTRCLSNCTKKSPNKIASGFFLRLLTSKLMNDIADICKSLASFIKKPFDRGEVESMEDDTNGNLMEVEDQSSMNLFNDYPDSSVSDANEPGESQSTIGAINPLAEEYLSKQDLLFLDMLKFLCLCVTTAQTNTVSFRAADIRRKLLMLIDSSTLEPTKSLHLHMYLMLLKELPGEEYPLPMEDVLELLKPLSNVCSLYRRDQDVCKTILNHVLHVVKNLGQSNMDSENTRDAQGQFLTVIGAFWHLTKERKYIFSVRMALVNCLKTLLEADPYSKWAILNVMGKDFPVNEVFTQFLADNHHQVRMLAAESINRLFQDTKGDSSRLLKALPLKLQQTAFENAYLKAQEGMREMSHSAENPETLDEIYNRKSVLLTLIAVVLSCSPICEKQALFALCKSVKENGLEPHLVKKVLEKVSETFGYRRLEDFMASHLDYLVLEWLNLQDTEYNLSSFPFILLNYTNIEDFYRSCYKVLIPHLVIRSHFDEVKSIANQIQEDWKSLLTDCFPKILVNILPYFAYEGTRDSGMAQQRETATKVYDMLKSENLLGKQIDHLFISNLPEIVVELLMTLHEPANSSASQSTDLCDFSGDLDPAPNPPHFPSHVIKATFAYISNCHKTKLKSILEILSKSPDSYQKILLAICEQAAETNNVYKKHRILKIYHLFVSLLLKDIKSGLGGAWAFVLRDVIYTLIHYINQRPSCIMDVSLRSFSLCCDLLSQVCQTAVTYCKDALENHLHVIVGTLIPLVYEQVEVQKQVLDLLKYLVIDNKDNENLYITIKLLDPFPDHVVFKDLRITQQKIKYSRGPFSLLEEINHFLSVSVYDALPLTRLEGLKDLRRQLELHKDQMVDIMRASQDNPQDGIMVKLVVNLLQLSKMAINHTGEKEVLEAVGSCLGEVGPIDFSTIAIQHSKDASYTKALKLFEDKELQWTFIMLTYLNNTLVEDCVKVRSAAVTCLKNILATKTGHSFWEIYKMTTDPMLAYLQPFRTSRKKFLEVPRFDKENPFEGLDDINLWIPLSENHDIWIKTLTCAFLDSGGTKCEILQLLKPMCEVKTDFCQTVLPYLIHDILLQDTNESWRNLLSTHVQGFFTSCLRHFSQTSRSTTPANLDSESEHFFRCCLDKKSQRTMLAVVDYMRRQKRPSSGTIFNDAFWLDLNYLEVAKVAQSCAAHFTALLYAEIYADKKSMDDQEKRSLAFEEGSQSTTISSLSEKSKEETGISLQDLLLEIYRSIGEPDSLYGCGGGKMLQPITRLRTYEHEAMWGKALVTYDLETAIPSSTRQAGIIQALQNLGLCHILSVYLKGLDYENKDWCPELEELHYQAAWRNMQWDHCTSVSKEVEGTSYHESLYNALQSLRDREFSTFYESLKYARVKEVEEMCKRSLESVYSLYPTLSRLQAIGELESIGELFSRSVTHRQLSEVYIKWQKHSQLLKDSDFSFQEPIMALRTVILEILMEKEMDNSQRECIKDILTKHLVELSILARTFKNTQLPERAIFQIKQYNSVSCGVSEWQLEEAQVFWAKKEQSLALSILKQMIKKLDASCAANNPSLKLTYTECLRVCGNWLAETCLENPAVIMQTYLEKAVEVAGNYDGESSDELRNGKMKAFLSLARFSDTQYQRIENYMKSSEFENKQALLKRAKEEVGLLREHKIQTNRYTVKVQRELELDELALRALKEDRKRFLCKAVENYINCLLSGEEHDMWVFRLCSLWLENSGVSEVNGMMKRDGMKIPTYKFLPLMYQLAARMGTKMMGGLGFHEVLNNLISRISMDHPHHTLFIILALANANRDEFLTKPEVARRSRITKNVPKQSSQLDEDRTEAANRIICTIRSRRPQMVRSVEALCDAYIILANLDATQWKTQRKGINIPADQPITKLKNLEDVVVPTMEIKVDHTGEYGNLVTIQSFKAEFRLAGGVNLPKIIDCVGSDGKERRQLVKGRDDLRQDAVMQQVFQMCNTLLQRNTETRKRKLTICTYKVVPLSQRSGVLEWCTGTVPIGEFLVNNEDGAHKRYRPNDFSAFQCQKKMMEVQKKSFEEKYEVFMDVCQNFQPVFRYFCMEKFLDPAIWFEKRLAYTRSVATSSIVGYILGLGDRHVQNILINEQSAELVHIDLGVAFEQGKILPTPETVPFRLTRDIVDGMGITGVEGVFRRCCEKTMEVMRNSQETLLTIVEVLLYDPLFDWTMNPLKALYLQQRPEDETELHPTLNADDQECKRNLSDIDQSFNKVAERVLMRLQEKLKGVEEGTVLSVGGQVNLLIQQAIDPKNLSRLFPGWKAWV
For orientation: In TR-FRET formats the signal depends on donor and acceptor labels being close together.

The subject of test [2] is phosphorylation of CHK2 (phospho-Thr68) in HCT116 cells. The test is described as follows: Cellular pCHK2 assay: bleomycin-induced phosphorylation of CHK2 (phospho-Thr68), immunofluorescence high-content analysis. The note with it: read-out: IC50 (pCHK2). The class given is cell-based, human. From the text:
For the identification of substances which inhibit the phosphorylation of the protein kinase CHK2 at the amino acid threonine 68, an immunofluorescence-based “high content” analysis assay was used in HCT116 cells.
In vitro cell-based immunofluorescence assay for the identification of inhibitors of bleomycin-induced phosphorylation of CHK2 (phospho-Thr68) in the human colon carcinoma cell line HCT116:
HCT116 cells are sown out in a defined cell density in 384-well plates in culture medium (DMEM high glucose, 2 mM GlutaMax, 1 mM Na pyruvate, 10% FCS) and incubated overnight at 37° C. and 10% of CO2. On the following day, the test substances are added in a defined concentration range (1 nM to 30 μM) in combination with 10 μM bleomycin, where the concentration of the solvent DMSO is kept constant at 0.5%. […] Parallel staining of DNA with propidium iodide enables determination of the cell count. The pCHK2 signal is detected using a high-content imager (Molecular Devices IMX Ultra) and automatic image analysis using the MetaXpress software belonging to the instrument. The number of cell nuclei which have a pCHK2 signal above a defined background is determined.

[3] abbreviates: HCT116 cells, 10 μM bleomycin, 4 h.

As usually defined, the IC50 is the point on the concentration scale where inhibition reaches its midpoint. As to “1-(3-Fluoro-5-methylpyridin- 4-yl)-7-methoxy-3-methyl-8- (2-methyl-2H-1,2,3-triazol- 4-yl)-1,3-dihydroimidazo- [4,5-c] quinolin-2-one [compound 103]”, the values for the half-maximal inhibitory concentration (IC50) in test [1] and in test [2] (setting [3]) were under 50 nM and 200 to 1000 nM, respectively.

Turning to `CCn1cc(-c2cc3c(cc2OC)ncc2c3n(-c3c(F)cncc3OC)c(=O)n2C)cn1` [Example 13], the IC50 in test [2] (setting [3]) is under 200 nM.

Turning to `COc1cnc(-n2c(=O)n(C)c3cnc4cc(OC)c(-c5cnn(C)c5)cc4c32)c(F)c1` [compound 105, 1-(3-Fluoro-5-methoxy-pyridin-2-yl)-7-methoxy-3-methyl-8-(1-methyl-1H-pyrazol-4-yl)-1,3-dihydro-imidazo[4,5-c]quinolin-2-one], the 50% inhibitory concentration (IC50) in test [1] was under 1 nM; in test [2] (Homo sapiens, HCT-116, 4 h), 200 to 1000 nM.

On to `COc1cc2ncc3c(c2cc1-c1cc[nH]n1)n(-c1cn(C)nc1C)c(=O)n3C` [compound 121, 1-(1,3-Dimethyl-1H-pyrazol-4-yl)-7-methoxy-3-methyl-8-(1H-pyrazol-3-yl)-1,3-dihydroimidazo[4,5-c]-quinolin-2-one], for which the IC50 is under 10 nM in test [1] and under 200 nM in test [2] (Homo sapiens, HCT-116, 4 h).

For the compound `CNC(=O)c1cnc(-n2c(=O)n(C)c3cnc4cc(OC)c(-c5cnn(C)c5)cc4c32)c(F)c1` [compound 138, 5-Fluoro-6-[7-methoxy-3-methyl-8-(1-methyl-1H-pyrazol-4-yl)-2-oxo-2,3-dihydroimidazo[4,5-c]-quinolin-1-yl]-N-methyl-nicotinamid], the IC50 in test [1] was under 10 nM; in test [2] (Homo sapiens, HCT-116, 4 h), 200 to 1000 nM.

With `COc1cc2ncc3c(c2cc1-c1cnn(C)c1)n(-c1cn(C)nc1F)c(=O)n3C` [compound 141, 1-(3-Fluoro-1-methyl-1H-pyrazol-4-yl)-7-methoxy-3-methyl-8-(1-methyl-1H-pyrazol-4-yl)-1,3-dihydro-imidazo[4,5-c]quinolin-2-one], the IC50 in test [1] is under 10 nM; in test [2] (Homo sapiens, HCT-116, 4 h) it was 200 to 1000 nM.

On to `COc1cc2ncc3c(c2cc1-c1cn(C)nc1C)n(-c1c(F)cncc1OC(F)F)c(=O)n3C` [compound 147, 1-(3-Difluoromethoxy-5-fluoropyridin-4-yl)-8-(1,3-dimethyl-1H-pyrazol-4-yl)-7-methoxy-3-methyl-1,3-dihydroimidazo[4,5-c]-quinolin-2-one], for which the IC50 is under 1 nM in test [1] and under 200 nM in test [2] (Homo sapiens, HCT-116, 4 h).

Regarding `[2H]C([2H])([2H])Oc1cnc(-n2c(=O)n(C)c3cnc4cc(OC)c(-c5cnn(C)c5)cc4c32)c(F)c1` [compound 155, 1-[3-Fluoro-5-(trideuterio-methoxy)-2-pyridyl]-7-methoxy-3-methyl-8-(1-methylpyrazol-4-yl) imidazo-[4,5-c]quinolin-2-one], the IC50 in test [1] is under 1 nM; in test [2] (Homo sapiens, HCT-116, 4 h), under 200 nM.

With `CCc1cnccc1-n1c(=O)n(C)c2cnc3cc(OC)c(-c4cnn(CC)c4)cc3c21` [compound 157, 8-(1-Ethyl-1H-pyrazol-4-yl)-1-(3-ethylpyridin-4-yl)-7-methoxy-3-methyl-1,3-dihydroimidazo[4,5-c] quinolin-2-one], the concentration for half-maximal inhibition (IC50) in test [1] was under 10 nM; in test [2] (Homo sapiens, HCT-116, 4 h), under 200 nM.

`COc1cc2ncc3c(c2cc1-c1cnn(C)c1)n(-c1c(F)cncc1C1CC1)c(=O)n3C` [compound 202, 1-(3-Cyclopropyl-5-fluoro-pyridin-4-yl)-7-methoxy-3-methyl-8-(1-methyl-1H-pyrazol-4-yl)-1,3-dihydro-imidazo[4,5-c]quinolin-2-one]: the IC50 in test [1] was under 1 nM.

For the compound `COc1cc2ncc3c(c2cc1-c1cn(C)nc1C)n(-c1ncc(OCS(C)(=O)=O)cc1F)c(=O)n3C` [compound 203, 8-(1,3-Dimethyl-1H-pyrazol-4-yl)-1-(3-fluoro-5-methyl-sulfonylmethoxypyridin-2-yl)-7-methoxy-3-methyl-1,3-dihydroimidazo[4,5-c]-quinolin-2-one], the 50% inhibitory concentration (IC50) in test [1] is under 1 nM.

As to `C=CCOc1cnc(-n2c(=O)n(C)c3cnc4cc(OC)c(-c5cnn(C)c5)cc4c32)c(F)c1` [compound 204, 1-(5-Allyloxy-3-fluoropyridin-2-yl)-7-methoxy-3-methyl-8-(1-methyl-1H-pyrazol-4-yl)-1,3-dihydroimidazo[4,5-c]-quinolin-2-one], in test [1], the IC50 is under 1 nM.

On to `CNCCOc1cnc(-n2c(=O)n(C)c3cnc4cc(OC)c(-c5cnn(C)c5)cc4c32)c(F)c1` [compound 206], for which the IC50 in test [1] was under 10 nM.

`COc1cc2ncc3c(c2cc1-c1cnn(C)c1)n(-c1ncc(OCC2CN(C)C2)cc1F)c(=O)n3C` [compound 207, 1-[3-Fluoro-5-(1-methyl-azetidin-3-ylmethoxy)-pyridin-2-yl]-7-methoxy-3-methyl-8-(1-methyl-1H-pyrazol-4-yl)-1,3-dihydro-imidazo[4,5-c]quinolin-2-one]: the half-inhibitory concentration (IC50) in test [1] is under 10 nM.

With `COc1cc2ncc3c(c2cc1-c1cnn(C2CNC2)c1)n(-c1c(F)cncc1OC)c(=O)n3C` [compound 208, 8-[1-(Azetidin-3-yl)-1H-pyrazol-4-yl]-1-(3-fluoro-5-methoxypyridin-4-yl)-7-methoxy-3-methyl-1H,2H,3H-imidazo[4,5-c]-quinolin-2-one], in test [1], the IC50 is under 10 nM.
